Measured values published in ChEMBL document CHEMBL1144128, “A new bisabolene epoxide from Tussilago farfara, and inhibition of nitric oxide synthesis in LPS-activated macrophages” (J Nat Prod, 1999).

Legend:
RAW264.7 [1] = experiment: Inhibition of LPS-induced nitric oxide synthesis in mouse RAW264.7 macrophages at 0.1 uM after 18 hrs of LPS challenge measured after 18 hrs by ELISA relative to LPS-treated control; format: functional; settings: RAW264.7, 18 h
RAW264.7 [2] = experiment: Inhibition of LPS-induced nitric oxide synthesis in mouse RAW264.7 macrophages at 0.1 uM pretreated 18 hrs before arginine challenge assessed after 18 hrs by ELISA relative to LPS-treated control; format: functional
RAW264.7 [3] = experiment: Inhibition of LPS-induced nitric oxide synthesis in mouse RAW264.7 macrophages at 0.1 uM after 18 hrs by ELISA relative to LPS-treated control; format: functional; settings: RAW264.7, 18 h
RAW264.7 [4] = experiment: Inhibition of LPS-induced nitric oxide synthesis in mouse RAW264.7 macrophages after 18 hrs of LPS challenge measured after 18 hrs by ELISA relative to LPS-treated control; format: functional
RAW264.7 [5] = experiment: Inhibition of LPS-induced nitric oxide synthesis in mouse RAW264.7 macrophages at 30 uM after 18 hrs of LPS challenge measured after 18 hrs by ELISA relative to LPS-treated control; format: functional; settings: RAW264.7, 18 h
RAW264.7 [6] = experiment: Inhibition of LPS-induced nitric oxide synthesis in mouse RAW264.7 macrophages at 30 uM pretreated 18 hrs before arginine challenge assessed after 18 hrs by ELISA relative to LPS-treated control; format: functional
RAW264.7 [7] = experiment: Inhibition of LPS-induced nitric oxide synthesis in mouse RAW264.7 macrophages at 30 uM after 18 hrs by ELISA relative to LPS-treated control; format: functional; settings: RAW264.7, 18 h
RAW264.7 [8] = experiment: Inhibition of LPS-induced nitric oxide synthesis in mouse RAW264.7 macrophages after 18 hrs by ELISA; format: functional, cell-based

Work on `CNC(=N)NCCC[C@H](N)C(=O)O` [TILARGININE] yielded an inhibition at 0.1 µM (RAW264.7 [1]) of 53.3%, an inhibition at 0.1 µM (RAW264.7 [2]) of 25.8% and an inhibition at 0.1 µM (RAW264.7 [3]) of 60.5%.

In the case of `N=C(N)NN` [PIMAGEDINE], the “inhibition (INH)” value (RAW264.7 [4]) is reported as 78.8%.

Molecule `C=C(C(CC=C(C)C)OC(=O)/C(C)=C\C)C1[C@H](OC(C)=O)C(=O)[C@@]2(C)O[C@H]2[C@@H]1OC(C)=O` (some centres undefined) has an inhibition at 30 µM (RAW264.7 [5]) of 11.1%, an inhibition at 30 µM (RAW264.7 [6]) of 68.9% and an inhibition at 30 µM (RAW264.7 [7]) of 71.1%. For the same molecule, the Activity (RAW264.7 [8]) was “Dose-dependent effect” and the IC50 (RAW264.7 [8]; RAW264.7, 18 h) was 8.9 µM.
